The subject of one experiment is GTL-16 tumor xenografts. Description: GTL-16 xenograft tumor growth. It counts as in vivo, mice. As for the experimental part: Animal models and drug administration. Athymic nude mice (nu/nu NCr; Animal Production Program, NCI-Frederick) were implanted with the human cancer cell lines U87 (glioblastoma); A549 (lung carcinoma); MDA-MB-231 (breast carcinoma); HT-29 (colon carcinoma); or with GTL-16, MKN45, or SNU5 (all gastric carcinomas, MET-amplified) as described (17). […] Sorafenib was dissolved in DMSO for in vitro studies. […] Tivantinib was administered orally in a PEG 400:20% vitamin E tocopheryl polyethylene glycol succinate solution (60:40) vehicle. Fit-for-purpose MET inhibitor studies.

The target of a further experiment is MET (Homo sapiens, UniProt P08581). As for the experimental part:
Fit-for-purpose MET inhibitor studies. […] Extracts of core needle biopsies collected 4 h after tivantinib administration on Day 8 were analyzed for MET, pMET, and hypoxia inducible factor 1, alpha subunit (HIF-1α) (21).
MET immunoassay procedure. The full-length MET immunoassay measures the total levels of full-length MET in tumor tissue samples, irrespective of phosphorylation status. […] Wells were blocked for 2 h with 1×PBS, 0.5% mannitol, 0.2% glycine, and 0.2% BSA, and strips were assembled on 96-well plate frames, freeze-dried, and sealed in desiccated pouches (6-month stability). For the immunoassay, 100 μL each of purified rMET calibrator, controls, and tumor lysates (at protein concentrations of 10-50 μg/mL) prepared in assay buffer (1×PBS/Casein [BioFx] containing PhosSTOP, protease inhibitors and 0.1% Triton X-100 [Roche]) were added to the AF276-coated wells. The rMET assay calibrator was prepared for the dynamic range of the assay. Plates were incubated at ambient temperature (25° C.±3° C.) on an orbital shaker (600 rpm) 1 h to capture MET. After three washes with assay buffer, 100 μL/well 200 ng/mL biotin-conjugated mouse monoclonal MET antibody (clone L41G3) was added to the plates and incubated 1 h at 25° C.±3° C., followed by a second wash and the addition of 100 μL/well 200 ng/mL streptavidin poly-HRP conjugate (Pierce). After 30-min incubation with the HRP-conjugate, plates were washed 4 times and 100 μL SuperSignal ELISA Pico Chemiluminescent Substrate (pierce) was added to each well. Plates were read within 10 min using an Infinite 200 Microplate ELISA reader (Tecan, USA). MET immunoassay calibration curves were analyzed on GraphPad Prism and unknown values were calculated using 4-parameter curve fitting.
Three different pMET immunoassays were developed for the PD studies: pY1234/1235-, pY1235-, and pY1356-MET (Supplemental Material). […] The pMET assay calibrators were prepared for the dynamic range of each assay. Assay control samples were prepared by combining GTL-16, SNU5, A549, MKN45, or U87 xenograft tumor lysates to achieve low, medium, and high MET concentrations at 10 to 50 μg/mL total protein concentrations.

For a further experiment, the system named is HIF-1α. As to the kind of experiment: HIF-1α immunoassay in SNU5 xenograft extracts. It counts as in vivo. Particulars: SNU5, day 8, pazopanib 100 mg/kg daily, p<0.05.
In experiment [1] the test system is pY1235-MET in MET-expressing cell lines (GTL-16, HT29, A549). Description: pY1235-MET immunofluorescence staining of treated cancer cell lines. In kind it is cell-based, human. To be noted: 100 nM drug, clone 23111 staining, FIG. 1B. As for the experimental part:
MET immunofluorescence analysis. […] Cells were fixed in 10% neutral-buffered formalin (Sigma-Aldrich) for 24 h, pelleted, and then embedded in paraffin. After 5-μm sectioning, antigen retrieval with Bond Epitope Retrieval Solution 2 (at 100° C. for 10 min) and immunofluorescent staining were performed on the Bond-max Autostainer (Leica Biosystems). For antigen detection, 10 μ/mL primary antibody (anti-pY1235-MET, clone 23111) was followed by 10 μg/mL goat anti-rabbit AF488 (Life Technologies). Immunofluorescence microscopy was performed on core needle biopsies of a resected a human HPRC tumor stained with 5 μg/mL anti-full-length MET (clone Met4) followed by 10 μg/mL anti-mouse AF660 (Life Technologies). Image acquisition and analysis were performed on a wide-field fluorescent, confocal microscope (Nikon 90i, Andor Camera, NIS Elements Software).

For another experiment, the target named is pY1235-MET (Homo sapiens, UniProt P08581). As to the kind of experiment: BIAlite-Biosensor interaction analysis of antibody binding affinity. Particulars: range of protein concentrations, details not shown. As for the experimental part: To facilitate bulk production, rabbit monoclonal antibodies (clones 23111 and 7334) were converted into recombinant proteins through transient expression in HEK293 cells (8). The cDNA from rabbit hybridomas was used to clone IgG heavy and light chains in a 7.7 kB ampicillin-resistant mammalian expression vector co-expressing EB oriP, zeocin selection, and CMV promoter for transient expression in HEK293 cells. For mammalian expression plasmids, DNA was prepared using the GenElute XP Maxiprep kit (Sigma-Aldrich) and verified by agarose gel electrophoresis. Recombinant protein production provided typical yields of 100-300 mg/L in suspension cultures. Specificity of antibodies, determined by Western blot using xenograft lysate and rMET protein, was unaffected by this process. To further characterize these MET antibodies, their binding affinities were measured over a range of protein concentrations using interaction analysis performed with a BIAlite-Biosensor (Pharmacia) as previously described (9).

Experiment [2] addresses T1, recombinant cytoplasmic domain of RON (Homo sapiens, UniProt Q04912).
T1 construct: preincubating with recombinant RON (cytoplasmic domain, Millipore); purchased Millipore
T1 sequence (Q04912 979-1400 limits assumed): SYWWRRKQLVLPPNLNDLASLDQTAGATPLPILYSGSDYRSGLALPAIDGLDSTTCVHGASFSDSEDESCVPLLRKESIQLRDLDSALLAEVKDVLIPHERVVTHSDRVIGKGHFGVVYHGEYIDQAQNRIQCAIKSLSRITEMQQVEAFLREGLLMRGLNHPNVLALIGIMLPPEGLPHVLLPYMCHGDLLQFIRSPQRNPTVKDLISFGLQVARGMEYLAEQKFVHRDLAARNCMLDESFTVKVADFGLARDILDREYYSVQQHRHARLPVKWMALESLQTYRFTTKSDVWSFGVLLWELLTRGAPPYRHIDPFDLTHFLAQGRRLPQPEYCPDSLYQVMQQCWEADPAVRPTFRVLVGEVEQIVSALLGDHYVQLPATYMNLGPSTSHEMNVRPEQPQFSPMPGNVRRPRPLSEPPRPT
Description: Western blot specificity analysis. In kind it is binding. To be noted: FIGS. 7A and 7B. As for the experimental part:
(§1) Rabbits were selected for splenectomy and B-cells were subsequently fused with the rabbit cell line 240E-W2 to produce hybridomas based on high antiserum binding to phosphorylated synthetic peptide and lower or undetectable binding to the nonphosphorylated synthetic peptide of identical sequence. Specificity of the pY1235-MET antibody (clone 23111) was tested by preincubating the antibody with synthetic MET peptides phosphorylated at Y1235 (99% phosphorylated at Y1235, nonphosphorylated at Y1234, 1% other impurities) or at Y1234, or preincubating with recombinant RON (cytoplasmic domain, Millipore) (FIG. 7A). Only preincubation with the pY1235 peptide blocked binding of the antibody to the MET protein band. Specificity of clone 23111 was further confirmed by Western blotting of a GST-fusion with MET amino acids 912-1390 harboring a Y1235D-specific mutation (N-terminal GST-Y1235D-MET peptide, 76 kDa; CarnaBio USA, Inc) and of a recombinant cytoplasmic domain of RON (FIG. 7B). […] According to the manufacturer's specifications, anti-pY1234/1235-MET (clone D26) can also bind to tyrosine phosphorylated SRC proteins by Western blot.
(§2) Protein concentrations were determined by bicinchoninic acid assay (BCA assay), and cell lysate loads between 25 and 50 μg per well were run on 4% to 20% precast polyacrylamide gradient gels (Bio-Rad Laboratories) for SDS-PAGE at 100 V for up to 2 hours. Proteins separated by gel electrophoresis were transferred to a nitrocellulose membrane using the Mini-PROTEAN Tetra electrophoresis system (Bio-Rad) at 90 V for 4 hours at 2° C. to 8° C. Membranes were blocked in Odyssey blocking buffer (LI-COR) for 1 hour at 25° C.±3° C. Blots were probed first with 1 μg/mL mouse, rabbit, or goat anti-MET monoclonal antibody in Odyssey blocking buffer overnight at 2° C. to 8° C. with slow orbital shaking and then with an IR dye-labeled secondary antibody against mouse, rabbit, or goat antibody (1:5000 in Odyssey blocking buffer; LI-COR) for 1 hour at 25° C.±3° C. with orbital shaking. Blots were visualized using the Odyssey Infrared imager (LI-COR). […]
(In general: Immunoblotting shows a protein as a band on a membrane.)

For a further experiment, the system named is pY1234-MET. As to the kind of experiment: Western blot specificity analysis. In kind it is binding. Particulars: FIG. 7A. As for the experimental part:
as §1, §2

The target in experiment [3] is T2, recombinant Y1235D-MET peptide (N-terminal GST-Y1235D-MET) (Homo sapiens, UniProt P08581, Y1235D).
T2 construct: a GST-fusion with MET amino acids 912-1390 harboring a Y1235D-specific mutation; purchased CarnaBio USA, Inc
As to the kind of experiment: Western blot specificity analysis. In kind it is binding. Particulars: FIG. 7B. As for the experimental part: as §1, §2

“Also recorded” adds a separate entry of the source. Where two headings read alike, the source gives them in different places.

For the molecule `C[C@@H](Oc1cc(-c2cnn(C3CCNCC3)c2)cnc1N)c1c(Cl)ccc(F)c1Cl` [PF02341066, crizotinib], the tumor growth result in the experiment with GTL-16 tumor xenografts (daily oral 25 mg/kg, by the seventh day of treatment) is on record as “achieved stasis”.
As to `Cc1[nH]c(/C=C2\C(=O)Nc3ccc(S(=O)(=O)Cc4c(Cl)cccc4Cl)cc32)c(C)c1C(=O)N1CCC[C@@H]1CN1CCCC1` [PHA665752], the “reduction in pY1235-MET:MET ratio” value on MET (GTL-16, 25 mg/kg IP, 4 h after first dose) is recorded as 62%; on MET (GTL-16, 50 mg/kg IP, 4 h after first dose) it was 80%; on MET (GTL-16, 4 h after the first dose (discussion summary)), 60-80%. The “pY1356-MET:MET ratio” value on MET (GTL-16, PHA665752 after first dose, recovered to normal within 20 h) is given as “declined after the first dose”. Further, the tumor growth entry in the experiment on GTL-16 tumor xenografts (25 and 50 mg/kg/day IP, after 8-10 days of treatment) is given as “achieved tumor stasis”.
For the molecule `Cc1ccc(Nc2nccc(N(C)c3ccc4c(C)n(C)nc4c3)n2)cc1S(N)(=O)=O` [pazopanib], the “increase in HIF-1α levels” value in the experiment with HIF-1α worked out at 46%.
`CNC(=O)c1cc(Oc2ccc(NC(=O)Nc3ccc(Cl)c(C(F)(F)F)c3)cc2)ccn1` [sorafenib]: the “sensitivity of pY1235-MET plasma membrane staining to drug” value in experiment [1] was “not”.

B1: clone 23111: rabbit monoclonal antibody specific to pY1235-MET; VH SEQ ID NO:1, VL SEQ ID NO:2 (antibody, V domains shown)
VH: QSVEESGGRLVTPGTPLTLTCTVSGFSLSNYAMGWFRQAPGKGLEWIGIISRSGALWYANWANGRFTISKTSTTVDLKITSPTPEDTATYFCARTNYYDGYGGVDAVLTRFDFWGQGTLVTVSSG
VL: ADVVMTQTPSSVEAAVGGTVTIKCQASQSIGGGLSWYQQKAGQPPKLLIYGASTLESGVPSRFKGSGSGTEFTLTISDLECADAATYYCQSNYGSDIRDYGHTFGGGTEVVVKGDPVAPTVLIFPP
What is called IC50 is the concentration that inhibits the measured activity by half. The low end stands for greater potency, the high end for weaker potency. B1 displayed an IC50 with pY1235-MET of 1.2 nM. Moreover, the “cross-reactivity with cytoplasmic domain of RON” value in experiment [2] is listed as “no cross-reactivity”. In addition, the “reactivity with MET epitope phosphorylated only at Y1234” value in the experiment with pY1234-MET is listed as “no cross-reactivity; also recorded: undetectable reactivity”. The “reactivity with Y1235D-MET (tyrosine 1235 replaced by aspartic acid)” value in experiment [3] is given as “no cross-reactivity; also recorded: undetectable cross-reactivity”.

These data come from US11340219B2, “Anti-pY1235-MET immunological binding reagent” (THE UNITED STATES OF AMERICA AS REPRESENTED BY THE …, priority 2016, dated 2022).
